Source: patent publication US7109317B1, “FK506-based regulation of biological events” (President and Fellows of Harvard College, priority 1998, dated 2006)

What was measured:
[1] = tested on: mink lung cells (FKBP); assay: rapamycin-dependent effect in mink lung cells, suppression by FK506 derivatives; assay type: cell-based
Description: To rule out these other possibilities, we tested two of the derivatives for their ability to suppress a rapamycin-dependent effect in mink lung cells (Paul A Clemons and Brent Stockwell, unpublished observations).

[2] = tested on: calcineurin; assay: NFAT-SEAP reporter gene assay (calcineurin inhibition assay), PMA/ionomycin-stimulated; assay type: cell-based, human; conditions: dose-dependent suppression of PMA/ionomycin-induced activation of NFAT-SEAP reporter, transient transfection
Method: (§1) In particular, we transfected human TAg Jurkat T cells with a reporter construct, NFAT-SEAP, which consists of 12 copies of the NFAT response element fused upstream of the gene for secreted alkaline phosphatase (SEAP). Following transfection, the cells were exposed to phorbol myristate acetate (PMA) and ionomycin (IO), which together are able to activate NFAT-SEAP reporter activity. […] Specifically, ten million Jurkat cells per condition were transfected with 500 ng of NFAT-SEAP reporter construct by electroporation (40 ms pulse) and aliquoted at 0.3×10^6/well into a 96-well microtiter plate. […] Cells were incubated 36 hours in a tissue culture incubator, then heat-inactivated for 2 hours at 65° C. Following heating, 100 μL of cell supernatants were transferred to a replica plate containing 100 μL of assay buffer (120 μM 4-methylumbelliferyl phosphate in 2M diethanolamine bicarbonate, pH 10). Assays were incubated 8 hours before reading on a Fluoroskan plate reader.

[3] = tested on: mink lung cells; assay: Suppression of a rapamycin-dependent effect in mink lung cells; assay type: cell-based; conditions: unpublished observations
Description: Other possibilities for the reduced activity of derivatives in this assay are 1) compound insolubility in tissue culture media, 2) inability of compound to penetrate the cell membrane, or 3) inability of compound to bind to FKBP. To rule out these other possibilities, we tested two of the derivatives for their ability to suppress a rapamycin-dependent effect in mink lung cells (Paul A Clemons and Brent Stockwell, unpublished observations).

[4] = tested on: endogenous calcineurin (NFAT-SEAP reporter, human TAg Jurkat T cells); assay: NFAT-SEAP reporter assay (calcineurin inhibition assay), PMA + ionomycin stimulated human TAg Jurkat T cells; assay type: cell-based; conditions: for inhibition of NFAT-SEAP activity: PMA/ionomycin-induced reporter activity
Description: A similar strategy can be used to identify bump-hole pairs for the CAB domain.
Each of the residues in question is part of the CAB minimal binding domain structure. […] These mutations may be inserted randomly or in a directed fashion, as described above for FKBP.
as §1

[5] = tested on: fCAB, CnA (12–394) fused to CnB (3–170), human calcineurin A (SEQ ID NO: 33) and calcineurin B (SEQ ID NO: 35); assay: NFAT-SEAP reporter assay with overexpressed full length CAB (fCAB); assay type: cell-based; conditions: 500–5000 ng fCAB construct DNA, 500 ng NFAT-SEAP
Method: Primers containing restriction sites were prepared in order to amplify two different fragments of calcineurin A, corresponding the full-length CAB (fCAB) and the minimal CAB (mCAB). These PCR fragments were subcloned directionally into the polylinker to generate the following constructs: ATG-XhoI-CnA (12–394)-SalI-SpeI-TAA-EcoRI ATG-XhoI-CnA (340–394)-SalI-SpeI-TAA-EcoRI Primers containing restriction sites were prepared in order to amplify the fragment of calcineurin B corresponding to residues 3–170 of this protein. […] This fusion results in another (SalI/XhoI) fusion which cannot be cut by either enzyme. A similar strategy is possible to generate multimers of the CAB domain, greatly facilitating the production of these reagents. Since all of the restriction enzymes within the coding region are 6-base cutters, they preserve the reading frame for protein synthesis. The mature CAB should have the following amino acid sequence: NH2-Met-Leu-Glu-(CnA frag)-Val-Glu-(CnB frag)-Val-Asp-Thr-Ser-COOH • (SEQ ID NO 22) New mCAB-p65 constructs were verified by sequence analysis.
In particular, we transfected human TAg Jurkat T cells with a reporter construct, NFAT-SEAP, which consists of 12 copies of the NFAT response element fused upstream of the gene for secreted alkaline phosphatase (SEAP). […] Assays were incubated 8 hours before reading on a Fluoroskan plate reader. […]

[6] = tested on: full length CABs (residues 12–394 of human calcineurin A, SEQ ID NO: 33, fused to residue 2 or residue 3 of calcineurin B, SEQ ID NO: 35) fused to VP16 or …; assay: SEAP transcription activation assay, full length CABs fused to VP16 or GAL4; assay type: cell-based; conditions: FK506 titration, Jurkat T-cells
Description: The summary of our data in this transcription assay is as follows. The full length CABS (residues 12–394 of calcineurin A fused to residue 2 or to residue 3 of Calcinuerin B) are functional when fused to VP16 or to GAL4. They have an EC50 of ˜1 nanoMolar.

[7] = tested on: 2 tandem minicabs (340–394 of CNA and 3–170 of CNB) fused to VP16, with Gal4 fused to 3 FKBPs; assay: SEAP transcription activation assay, 2 tandem minicabs fused to VP16; conditions: FK506, SEAP
Method: (§2) 10 million T-antigen transformed Jurkat T-cells growing in log phase at 37 degrees with 5% CO2 in RPMI medium supplemented with 10% FBS, Penicillin and Streptomycin, and Glutamate are centrifuged for 5 minutes at 1000×g. This pellet is washed with RPMI without phenol-red and re-pelleted by centrifugation at 1000×g for 5 minutes. 200 microliters of phenol-free RPMI are used to resuspend each 10 million cells. 200 microliters of these cells are then incubated for 10 minutes at room temperature with 1 microgram of the UAS-SEAP reporter, 1 microgram of the DNA binding domain containing construct, and 5 micrograms of the activation domain containing construct. Electroporation is performed at […], 129 Ohms on a BTX electroporator. The cells are allowed to recover at room temperature for another 10 minutes. They are then resuspended in 10 mLs of RPMI w/o phenol red supplemented with 10% FBS, penicillin, streptomycin, and Glutamate and returned to the 37 degree incubator with 5% CO2 for 24 hrs.
(§3) After recovery, the cells are pelleted by centrifugation at 1000×g for 5 minutes and resuspended in 5 mLs of RPMI w/o phenol red supplemented with 10% FBS, penicillin, streptomycin, and Glutamate. 100 microliters of this cell suspension is plated on a 96 well plate. […]

[8] = tested on: 340miniCAB-VE constructs (CNA residues 340–394 fused to CNBMG or CNBM, VP16), with FKBP3-GE; assay: SEAP assay, 340miniCAB-VE with FKBP3-GE; assay type: cell-based, human
Method: as §2
After recovery, the cells are pelleted by centrifugation at 1000×g for 5 minutes and resuspended in 5 mLs of RPMI w/o phenol red supplemented with 10% FBS, penicillin, streptomycin, and Glutamate. 100 microliters of this cell suspension is plated on a 96 well plate. Appropriate dilutions of the dimerizer from an ethanolic solution (2 micromolar to 0.2 nanomolar) are made in the same media that the cells were resuspended in such that the concentration of ethanol is less than 1%.

[9] = tested on: 350miniCABs (CNA residues 350–394 fused to CNBMG or CNBM, VP16), with FKBP3-GE; assay: SEAP assay, 350miniCAB-VE with FKBP3-GE; assay type: cell-based, human; conditions: FK506, with FKBP3-GE
Description: Four such minimal CAB proteins were created by PCR and ligation. Two of the miniCABs contained CNA residues 340–394 fused to either CNBMG or CNBM(340miniCABs). The other two miniCABs contained CNA residues 350–394 fused to either CNBMG or CNBM(350miniCABs). Each of these miniCABs was also fused to the VP16 transactivation domain.
Consistent with the relative activity of CNBMG and CNBM, 340miniCABMG-VE was able to induce higher SEAP activity than 340miniCABM-VE.

[10] = tested on: (340miniCABMG)2-VE, two 340miniCAB domains in series fused to VP16, with FKBP3-GE; assay: SEAP assay, two 340miniCAB domains in series (VE) with FKBP3-GE; assay type: cell-based, human; conditions: FK506, with FKBP3-GE
Method: as §2, §3

[11] = tested on: (340miniCABMG)3-VE, three 340miniCABs in series fused to VP16, with FKBP3-GE; assay: SEAP assay, three 340miniCAB domains in series (VE) with FKBP3-GE; assay type: cell-based, human; conditions: FK506, with FKBP3-GE
Method: as §2, §3

[12] = tested on: full length CABMG-GE (CNA residues 12–394 fused to CNBMG, GAL4), with FKBP3-VE; assay: SEAP assay, full length CABMG-GE with FKBP3-VE
Method: as §2, §3

| Compound | suppression of rapamycin-dependent effect [1] | fold less immunosuppressive than FK506 [2] | ability to suppress the effects of rapamycin [3] | inhibition of NFAT-SEAP activity [4] | immunosuppressive activity relative to FK506 (dose-dependent suppression of PMA/ionomycin-induced NFAT-SEAP activation) ([4]; fold less immunosuppressive than FK506, transient transfection) | inhibition of reporter gene activity at high level of fCAB overexpression [5] | EC50 [6] | total activation [7] | stimulation of SEAP activity ([8]; FK506-dependent, with FKBP3-GE) | EC50 ([8]; miniCABs, FK506, SEAP) | EC50 of the miniCABs compared with full length CABMG-VE ([8]; relative to full length CABMG-VE) | stimulation of SEAP activity [9] | EC50 [10] | EC50 [11] | enhancement of SEAP activity ([12]; FK506, with FKBP3-VE) | stimulation of SEAP activity in the absence of FK506 ([12]; full CAB-GE and CAB-VE, no FK506) |
| --- | --- | --- | --- | --- | --- | --- | --- | --- | --- | --- | --- | --- | --- | --- | --- | --- |
| CO[C@H]1C[C@@H](C)C/C(C)=C/[C@@H](CC=Cc2ccc(Oc3ccccc3)cc2)C(=O)C[C@H](O)[C@@H](C)[C@@H](/C(C)=C/[C@@H]2CC[C@@H](O)[C@H](OC)C2)OC(=O)[C@@H]2CCCCN2C(=O)C(=O)[C@]2(O)O[C@H]1[C@@H](OC)C[C@H]2C [C40-p-phenoxyphenyl-FK506] | able to suppress the effects of rapamycin |  |  |  |  |  |  |  |  |  |  |  |  |  |  |  |
| CO[C@H]1C[C@@H](C)C/C(C)=C/[C@@H](CC=Cc2ccccc2)C(=O)C[C@H](O)[C@@H](C)[C@@H](/C(C)=C/[C@@H]2CC[C@@H](O)[C@H](OC)C2)OC(=O)[C@@H]2CCCCN2C(=O)C(=O)[C@]2(O)O[C@H]1[C@@H](OC)C[C@H]2C [C40-phenyl-FK506] | able to suppress the effects of rapamycin | at least 30 fold | able to suppress the effects of rapamycin | inability of C40-phenyl-FK506 to inhibit NFAT-SEAP activity | at least 30 fold |  |  |  |  |  |  |  |  |  |  |  |
| C=CC[C@@H]1/C=C(\C)C[C@H](C)C[C@H](OC)[C@H]2O[C@@](O)(C(=O)C(=O)N3CCCC[C@H]3C(=O)O[C@H](/C(C)=C/[C@@H]3CC[C@@H](O)[C@H](OC)C3)[C@H](C)[C@@H](O)CC1=O)[C@H](C)C[C@@H]2OC [FK506] |  |  |  | antagonizes the effect of PMA+IO in a dose-dependent manner |  | a high level of fCAB overexpression overcame the ability of FK506 or its derivatives to inhibit reporter gene activity | ~1 nM | ~20 fold | able to stimulate SEAP activity | ~3 nM | an order of magnitude greater than for full length CABMG-VE | neither of the 350miniCABs were able to stimulate SEAP activity | ~1.3 nM | ~1.3 nM | 2.0 fold | do not stimulate activity in the absence of FK506 |
